Assay [1] concerns FoxM1 and phospho-VEGF receptor1 protein. In words: Immunoblotting of angiogenic markers in HT-29 and HCT-15 cell lysates. Conditions: vs untreated and single compound groups. The class given is cell-based, human. The procedure: (§1) FIG. 6. AGP and MLT synergistically downregulates angiogenic signaling molecules in colon cancer cells. HT-29 (left) and HCT-15 (right) cells were analyzed for A. VEGF165, B. VEGF189, C. VEGF receptor1, D. FoxM1, E. PTTG1 mRNA expression in the presence and absence of AGP, MLT and 5-FU. F. HT-29 and HCT-15 cell lysates were subjected for protein expression as indicated. (G-H). Quantification of FoxM1 was normalized with GAPDH and (I-J). p-VEGF receptor1 was normalized with total VEGF receptor 1. Statistical significance was determined using one-way ANOVA followed Bonferroni test (*P<0.05, **P<0.01, ***P<0.001).
(§2) Immunoblotting was performed as previously described (Banerjee, Basu, et al. 2016). The primary antibodies used were against ATF6 (#MA5-16172; Thermo Fisher Scientific) phospho-PERK (Thr 981) (#sc-32577; Santa Cruz biotechnology), IRE-1 (#3294S; Cell Signaling), phospho-VEGFReceptor1/Flt-1 (Y1213) (#AF4170; R&D systems,), total VEGFReceptor1 (R&D systems, #AF321), FoxM1 (R&D systems, #AF3975), and GAPDH (#G8795; Sigma Aldrich). Blots were incubated with HRP-conjugated secondary antibodies followed by enhanced chemiluminescence (ECL) detection. Images were captured using a Syngene G Box digital imager (Frederick, Md.) and results were quantified with densitometry as previously described (Blanchard et al. 2018).
A general note: In western blotting, separated proteins are transferred to a membrane and probed.

For assay [2], the system named is HT-29. Conditions: HT-29, previous studies (Lim et al. 2007); read-out: IC50 dose of 5-FU; cited from earlier work.
The subject of assay [3] is IRE-1, ATF6, CHOP mRNA. As to the kind of experiment: qRT-PCR of ER stress associated genes in HT-29 and HCT-15 cells. The class given is cell-based, human. Conditions: 5-FU at IC50 dose; for CHOP mRNA expression: AGP 9.3 μM, MLT 0.18 mM alone or combined, 48 h, both cell lines. The protocol:
(§3) FIG. 5. AGP and MLT synergistically induce ER stress-related molecules. HT-29 and HCT-15 cells were treated with AGP, MLT, AGP+MLT, and 5-FU for 48 h as indicated in the methodology section. Transcriptional level of expression of ER stress associated genes was determined by qRT-PCR for A. IRE-1, B. ATF6, and C. CHOP. Bar graphs show quantitative results normalized to GAPDH mRNA levels. Results are from three independent experiments. D. Treated and untreated cells were lysed, and protein expression was determined by immunoblotting for IRE-1, ATF6, phospho-PERK, and GAPDH.
(§4) Gene expression was evaluated as previously described (Banerjee et al., Oncotarget, (2016), 7(27):41432-41444). Primer sequences are listed in Supplementary Table 1. Relative gene expression changes were calculated using the 2^−ΔΔCT method, and expression normalization was accomplished using the housekeeping gene, GAPDH.
(Quantitative PCR measures a nucleic acid by following its amplification.)

The conditions of assay [4]: cited from earlier work.
Assay [5] concerns VEGF165, VEGF189, VEGF receptor1, VEGF Receptor2, FoxM1, PTTG1 mRNA. As to the kind of experiment: qRT-PCR of angiogenic signaling molecules in HT-29 and HCT-15 cells. In kind it is cell-based, human. The procedure:
as §1, §4

In assay [6] the test system is IRE-1, ATF6, phospho-PERK protein. As to the kind of experiment: Immunoblotting of ER stress markers in HT-29 and HCT-15 cell lysates. In kind it is cell-based, human. Conditions: 5-FU treatment group; except IRE-1 protein level in HT-29. The protocol:
as §3, §2

Assay [7] concerns HCT-15. Conditions: HCT-15, previous studies (Lim et al. 2007); read-out: IC50 dose of 5-FU; cited from earlier work.
Assay [8] addresses Ki-67 in patient derived organoids (PDOD). In words: Ki-67 immunofluorescence in patient derived organoids. In kind it is cell-based, human. The conditions noted are these: AGP 15 μM, MLT 0.5 mM or both, 48 h; vs untreated. The protocol: Organoid cells were generated from stage 3 metastatic cancer tissue and cultured as previously described (Blanchard et al., Cell Physiol Biochem, (2018), 48(3):1259-1273; Banerjee et al., Gastroenterology and Hepatology International Journal, (2017), 2(2):1-2; Blanchard et al., Cancers (Basel), (2019), 11(2)). The cultures were passaged when the aggregates reached a diameter of approximately 800 μm. Organoids were treated with 15 μM AGP, 0.5 mM MLT, or both for 48 h. Treated and untreated organoids were subjected to morphological analysis and immunofluorescence for Ki67 expression.
Patient derived organoids were grown in 1:1 mixture of Matrigel and advanced DMEM:F12 (Life Technologies) supplemented with 1× penicillin/streptomycin, lx glutamine, 1×N2, 1×B27, 1 mM N-acetyl-L-cysteine, 20 ng/ml fibroblast growth factor and 50 ng/ml epidermal growth factor at 37° C. on a 4-chambered glass slide. […]
Fluorescence microscopy and colony counting were performed using an inverted fluorescence microscope (Olympus IX-71, Pennsylvania, USA). […] Fluorescence intensity was quantified using ImageJ software version 1.39 (NIH). RGB composite images from control and treated groups were created using Axion Vision rel, 4.6 and analyzed. […]

Assay [9] has as its system Cyclin B1, Prx, Trx. Conditions: T84 and Colo 205 cell lysates, earlier publication; cited from earlier work.
Assay [10] has as its system HT-29 cells. As to the kind of experiment: MTT cell viability assay with CompuSyn / Chou-Talalay combination index analysis. The class given is cell-based, human. Conditions: for IC50: Homo sapiens, HT-29, 48 h, median-effect plot, combination = total dose at 1:20, read-out: Dm values for HT-29. The protocol:
(§5) Cell cytotoxicity in the presence or absence of AGP and MLT was assessed using the MTT (Sigma Aldrich) assay as previously described (Banerjee et al., Helicobacter, (2016), 21(5):395-404). Cells (1×10^4) were plated in phenol-free complete RPMI media and incubated at 37° C. under 5% CO2 for 24 h. Cells were then simultaneously treated in quadruplicate wells with AGP (0-150 μM), MLT (0-3000 μM) or vehicle controls (0.1% DMSO). The media was replaced with MTT solution for each plate at its respective timepoint (either 24, 48, 72 h) followed by the addition of DMSO to dissolve the formazan crystals. Absorbance at 570 nm was determined using a microplate reader (Model 550, Bio-Rad, USA). The percent cell viability relative to the vehicle control was calculated using the following equation:
(§6) [formula] The IC50 value and slope (m) of the concentration-response curves were calculated using the CompuSyn software developed by Chou and Martin (Tun et al., Mar Drugs, (2019), 17(9): 10.3390/md17090536). Colospheroid Formation Assay
(§7) To determine an upper bound on both the individual doses drugs, we measured maximum cell death (near 0% cell viability). AGP achieved this level at 150 μM and MLT at 3 mM for 48 h (Banerjee et al., Helicobacter, (2016), 21(5):395-404, Reiter et al., Int J Mol Sci, (2017), 18(4), doi: 10.3390/ijms18040843). […] Serial dilution was conducted up to 6 times to anchor the observed cell deaths along the dose range.
(§8) To understand the Combination Index (CI), we first defined the fraction affected (Fa) and its counterpart, fraction unaffected (Fu). In our case, the percentage of viable cells determines the […], and 100—percentage of viable cells determines the Fu. The dose effect curve provides an overview of Fa vs. Dose (FIG. 2A and FIG. 2B). As expected, the individual AGP and MLT dose effect curves cradle the combinational dose effect curve below and above, respectively. This means that the total combinational dose to achieve the same Fa is greater than AGP's dose and less than MLT's dose. However, due to the 1:20 combinational ratio, we require less AGP and MLT absolutely.
(§9) [formula] The ratio between Fa and Fu aids in understanding when a given dose achieves the IC50 value. At 50% cell viability,
(§10) [formula] To linearly scale the datapoints, we also took the log of Dose. In this manner, the x intercept of the Median-Effect plot—also known as Dm—precisely determines the dose required to achieve the IC50 value. Immunoblotting
Background: Formazan colour is commonly taken as a measure of viable cells.

Assay [11] relates to HCT-15 cells. The description is as above. In kind it is cell-based, human. Conditions: for IC50: Homo sapiens, HCT-15, 48 h, median-effect plot, combination = total dose at 1:20, read-out: Dm values for HCT-15. The protocol:
as §5, §6, §7, §8, §9, §10

The subject of assay [12] is T84 and Colo 205. Conditions: cited from earlier work.
The test system of assay [13] is HT-29 and HCT-15 cells. In words: MTT cell viability assay, one value given for both cell lines. Conditions: for IC50: Homo sapiens. The class given is cell-based, human. The procedure: as §5, §6, §7, §8, §9, §10
The subject of assay [14] is CRC. The conditions noted are these: previous studies; read-out: IC50 value of MLT for CRC; cited from earlier work.

Data on 3 molecules can be found in patent US12589088B2, “Compositions and methods for treating cancer with andrographolide and melatonin combination therapy” (University of Maryland, Baltimore, priority 2020, dated 2026).

Like-named read-outs stand apart in the source and are kept apart here.

In the case of `O=c1[nH]cc(F)c(=O)[nH]1` [5-FU, 5-Fluorouracil], in assay [1], the FoxM1 protein entry is on record as “No further reduction” and the “phospho-VEGF receptor1 protein” value is reported as “No further reduction”. Further, the IC50 in assay [2] was 13 µM. Moreover, the “ATF6 mRNA expression” value in assay [3] (HCT-15) is recorded as “induced significant”. For the same molecule, the “IRE-1 mRNA expression” value in assay [3] (HT-29 and HCT-15) is listed as “induced significant”. Further, the “CHOP mRNA expression” value in [3] was “attenuated”. For the same molecule, the “overall response rate to 5-FU in adjuvant treatment” value in [4] (adjuvant treatment) is reported as “less than 15%”. The “overall response of 5-FU in advanced CRC” value in assay [4] (advanced CRC) was “about 10%”. In assay [5], the “FoxM1 mRNA level” value is reported as “no more significant reduction” and the “PTTG1 mRNA level” value is given as “no more significant reduction”. In addition, in assay [5] (both cell lines, vs untreated), the mVEGF165 level entry is given as “increased” and the mVEGF189 level entry is given as “increased”. For the same molecule, the “ER stress marker protein expression” value in assay [6] was “No significant changes”. Further, the IC50 in [7] is approximately 5 µM.

In the case of `C=C1CC[C@@H]2[C@](C)(CO)[C@H](O)CC[C@@]2(C)[C@@H]1C/C=C1/C(=O)OC[C@H]1O` [AGP, andrographolide], in assay [3], the “CHOP mRNA expression” value is recorded as “Significant CHOP mRNA expression”. Moreover, the Ki-67 expression result in assay [8] is listed as “greatly reduced”. Besides, in [9], the “Cyclin B1 expression, AGP alone” value is reported as “suppresses”. The “potency of AGP relative to MLT” value turned out to be 40 fold in assay [10] (HT-29, dose-effect curve) and 26 fold in assay [11] (HCT-15, dose-effect curve). In addition, the IC50 is 25.6 µM in assay [10]; 26.5 µM in [11]; 45 µM in [12] (48 h, published results, read-out: IC50 value for AGP as a single therapy); 45 µM in [12] (T84 and Colo 205, previous study, read-out: IC50 value of AGP); 30 µM in assay [13] (24 h (stated consistent with 48 h), read-out: IC50 value of AGP); 30 µM in assay [13] (AGP single dose, 48 h, read-out: IC50 values). Also, the “dose achieving maximum cell death (near 0% cell viability)” value in assay [13] (48 h) was 150 µM. Further, in assay [13] (from maximum cell death doses), the “potency of AGP relative to MLT (basis of 1:20 ratio)” value is 20 times.

As to `COc1ccc2[nH]cc(CCNC(C)=O)c2c1` [MLT, melatonin], the Ki-67 expression result in assay [8] is “greatly reduced”. Besides, the IC50 in assay [10] is 1000 µM; in [11] it was 683 µM; in assay [14], 1000 to 2500 µM; in assay [13] (MLT single dose, 48 h, read-out: IC50 values), 1000 µM. For the same molecule, in [13] (24 h), the “cell number at 24 h” value is recorded as “transient increase in the cell number”. For the same molecule, in assay [13] (48 h), the “dose achieving maximum cell death (near 0% cell viability)” value is 3000 µM.
